Where a chain is given by its changes, count along the chain named. Where “and” joins values, the source holds several entries; their conditions need not be identical. Equal values may be shown once. Square brackets hold non-standard residues; d marks the D form. Peptide text beside a SMILES is read from it. dPiz(1,6-dehydro) = O=C(O)[C@H]1CCC=NN1; Pip = O=C(O)[C@@H]1CCCCN1; dPip = O=C(O)[C@H]1CCCCN1
Assays:
Vasopressin V2 receptor = Vasopressin V2 receptor (Rattus norvegicus, UniProt Q00788)
[1] = target: T1, Rat vasopressin-neurophysin (Rattus norvegicus, UniProt Q6LEI5)
T1 sequence (Q6LEI5 whole entry): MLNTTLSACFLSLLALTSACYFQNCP

Oxytocin receptor [2] = target: T2, Oxytocin receptor (Rattus norvegicus, UniProt P70536)
T2 sequence (P70536 whole entry): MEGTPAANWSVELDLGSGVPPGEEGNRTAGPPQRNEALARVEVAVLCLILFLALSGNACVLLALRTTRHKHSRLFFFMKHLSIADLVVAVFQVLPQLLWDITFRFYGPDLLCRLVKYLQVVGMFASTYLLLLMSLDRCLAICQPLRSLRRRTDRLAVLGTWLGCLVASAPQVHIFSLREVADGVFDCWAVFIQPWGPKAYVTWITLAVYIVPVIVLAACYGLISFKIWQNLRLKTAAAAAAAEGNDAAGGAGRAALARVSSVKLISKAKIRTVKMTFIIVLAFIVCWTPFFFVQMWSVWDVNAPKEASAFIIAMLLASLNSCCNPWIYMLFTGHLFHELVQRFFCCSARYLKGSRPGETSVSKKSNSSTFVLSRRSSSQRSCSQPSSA

Oxytocin receptor [3] = target: T3, Oxytocin receptor (Macaca mulatta, UniProt P56494)
T3 sequence (P56494 whole entry): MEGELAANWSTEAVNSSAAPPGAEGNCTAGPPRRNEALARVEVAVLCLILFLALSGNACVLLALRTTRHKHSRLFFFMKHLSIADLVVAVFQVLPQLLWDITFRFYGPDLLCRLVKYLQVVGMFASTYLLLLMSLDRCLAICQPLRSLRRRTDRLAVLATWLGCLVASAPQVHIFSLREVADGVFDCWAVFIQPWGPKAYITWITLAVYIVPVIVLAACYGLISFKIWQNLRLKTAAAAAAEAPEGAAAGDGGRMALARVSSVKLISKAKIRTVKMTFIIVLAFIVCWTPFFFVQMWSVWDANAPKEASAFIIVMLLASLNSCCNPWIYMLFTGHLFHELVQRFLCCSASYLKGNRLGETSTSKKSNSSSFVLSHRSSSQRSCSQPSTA

Oxytocin receptor [4] = target: T4, Oxytocin receptor (Homo sapiens, UniProt P30559)
T4 sequence (P30559 whole entry): T3 sequence (P56494 whole entry) with E4A, T11A, V14A, S16A, C27R, F51L, H69Q, M255V, N355R, T362A

Sequence of Vasopressin V2 receptor (Q00788 whole entry): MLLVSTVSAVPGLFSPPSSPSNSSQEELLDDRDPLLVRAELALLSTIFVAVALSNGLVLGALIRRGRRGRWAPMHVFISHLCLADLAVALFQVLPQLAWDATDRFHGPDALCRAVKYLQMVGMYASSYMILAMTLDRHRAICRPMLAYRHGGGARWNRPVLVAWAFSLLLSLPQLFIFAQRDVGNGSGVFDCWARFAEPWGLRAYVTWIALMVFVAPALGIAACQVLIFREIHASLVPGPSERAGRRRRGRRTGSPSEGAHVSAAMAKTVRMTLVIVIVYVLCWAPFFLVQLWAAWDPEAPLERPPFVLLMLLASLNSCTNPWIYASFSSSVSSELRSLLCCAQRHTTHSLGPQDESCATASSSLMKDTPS

| SMILES | Ki (Vasopressin V2 receptor) | Ki [1] | Ki (Oxytocin receptor [2]) | Ki (Oxytocin receptor [3]) | Ki (Oxytocin receptor [4]) |
| --- | --- | --- | --- | --- | --- |
| CC[C@H](C)[C@@H]1NC(=O)[C@@H](Cc2c[nH]c3ccccc23)NC(=O)[C@@H]2CCCN2C(=O)[C@@H](Cc2c[nH]cn2)NC(=O)[C@@H]2CCCCN2C(=O)[C@H]2CCCCN2C1=O [CAS_196819] (cyclo(I[dPip][Pip][dH]P[dW])) | 3100 nM | 2200 nM |  |  |  |
| CCC(C)C1NC(=O)[C@H](Cc2ccccc2)NC(=O)[C@H]2CCCN2C(=O)[C@H](Cc2ccccc2)N(C)C(=O)[C@@H]2CCC=NN2C(=O)[C@H]2CCC=NN2C1=O (some centres undefined) [J325.338D] |  |  | 7.3 nM and 12 nM | 12 nM |  |
| CCC(C)C(N)C(=O)N(C(=O)C1CCCN1C(=O)C(CC1=CC=CCC1(C(=O)N1C=CC=CC1)C(=O)N1CCNCC1)NC)C(C=O)Cc1c[nH]c2ccccc12 (centres undefined) [NSC_3083084] | 240 nM | 9500 nM | 3.4 nM and 4.2 nM | 4.7 nM | 4.5 nM |

Next, values leading:

| Ki (Vasopressin V2 receptor) | Ki [1] | Ki (Oxytocin receptor [2]) | Ki (Oxytocin receptor [3]) | Ki (Oxytocin receptor [4]) | SMILES |
| --- | --- | --- | --- | --- | --- |
| 370 nM | 1200 nM | 1.3 nM and 2.5 nM | 2.3 nM | 1.3 nM | CC[C@H](C)[C@@H]1NC(=O)[C@@H](Cc2c[nH]c3ccccc23)NC(=O)[C@@H]2CCCN2C(=O)[C@@H](Cc2cnc[nH]2)NC(=O)[C@@H]2CCCCN2C(=O)[C@H]2CCC=NN2C1=O [J325.349J] (cyclo(I[dPiz(1,6-dehydro)][Pip][dH]P[dW])) |
| 550 nM | 240 nM | 6 nM and 13 nM | 33 nM | 21 nM | CC[C@H](C)[C@@H]1NC(=O)[C@@H](Cc2ccccc2)NC(=O)[C@@H]2CCCN2C(=O)[C@@H](Cc2ccccc2)N(C)C(=O)[C@H]2CCC=NN2C1=O [J440.774A] |
| 1100 nM | 550 nM | 4.3 nM and 6.2 nM | 8.1 nM | 4.1 nM | CCC(C)C1NC(=O)[C@H](Cc2ccccc2)NC(=O)[C@H]2CCCN2C(=O)[C@H](Cc2ccccc2)N(C)C(=O)[C@H]2CC(CN(C)C)CNN2C(=O)[C@H]2CCC=NN2C1=O (some centres undefined) [J440.775J] |
| 810 nM and 320 nM | 760 nM | 0.7 nM and 0.8 nM | 6.4 nM | 5.1 nM | CCC(C)C(NC(=O)C(N)Cc1ccc2ccccc2c1)C(=O)C1(C=O)CCCN1C(=O)C(N)CC1=NC(C(=O)N2CCCCC2)(C(=O)N2CCCCC2)N=C1 (centres undefined) [NSC_188397] |
